Reference: patent US11427558B1, “Indazoles and azaindazoles as LRRK2 inhibitors” (ESCAPE Bio, Inc., priority 2019, dated 2022)

How the values were obtained:
[1] = target: Recombinant G2019S-LRRK2 protein (Homo sapiens (Human), UniProt Q5S007, G2019S); assay: LRRK2 kinase activity, LanthaScreen TR-FRET assay (G2019S); format: biochemical; conditions: LRRKtide 400 nM, 25 μM ATP, 60 min
Procedure, shortened: (§1)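 Recombinant human wild-type or G2019S LRRK2 phosphorylated fluorescein-labelled LRRKtide (ERM-based) with ATP and serially diluted compound for 60 min at room temperature.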

[2] = target: Recombinant wild type LRRK2 protein (Homo sapiens (Human), UniProt Q5S007); assay: LRRK2 kinase activity, LanthaScreen TR-FRET assay (wild type); format: biochemical; conditions: LRRKtide 400 nM, 25 μM ATP, 60 min; read-out: LRRK2 WT IC50
Procedure, shortened: as §1

Recombinant wild type LRRK2 protein, sequence (Q5S007 whole entry): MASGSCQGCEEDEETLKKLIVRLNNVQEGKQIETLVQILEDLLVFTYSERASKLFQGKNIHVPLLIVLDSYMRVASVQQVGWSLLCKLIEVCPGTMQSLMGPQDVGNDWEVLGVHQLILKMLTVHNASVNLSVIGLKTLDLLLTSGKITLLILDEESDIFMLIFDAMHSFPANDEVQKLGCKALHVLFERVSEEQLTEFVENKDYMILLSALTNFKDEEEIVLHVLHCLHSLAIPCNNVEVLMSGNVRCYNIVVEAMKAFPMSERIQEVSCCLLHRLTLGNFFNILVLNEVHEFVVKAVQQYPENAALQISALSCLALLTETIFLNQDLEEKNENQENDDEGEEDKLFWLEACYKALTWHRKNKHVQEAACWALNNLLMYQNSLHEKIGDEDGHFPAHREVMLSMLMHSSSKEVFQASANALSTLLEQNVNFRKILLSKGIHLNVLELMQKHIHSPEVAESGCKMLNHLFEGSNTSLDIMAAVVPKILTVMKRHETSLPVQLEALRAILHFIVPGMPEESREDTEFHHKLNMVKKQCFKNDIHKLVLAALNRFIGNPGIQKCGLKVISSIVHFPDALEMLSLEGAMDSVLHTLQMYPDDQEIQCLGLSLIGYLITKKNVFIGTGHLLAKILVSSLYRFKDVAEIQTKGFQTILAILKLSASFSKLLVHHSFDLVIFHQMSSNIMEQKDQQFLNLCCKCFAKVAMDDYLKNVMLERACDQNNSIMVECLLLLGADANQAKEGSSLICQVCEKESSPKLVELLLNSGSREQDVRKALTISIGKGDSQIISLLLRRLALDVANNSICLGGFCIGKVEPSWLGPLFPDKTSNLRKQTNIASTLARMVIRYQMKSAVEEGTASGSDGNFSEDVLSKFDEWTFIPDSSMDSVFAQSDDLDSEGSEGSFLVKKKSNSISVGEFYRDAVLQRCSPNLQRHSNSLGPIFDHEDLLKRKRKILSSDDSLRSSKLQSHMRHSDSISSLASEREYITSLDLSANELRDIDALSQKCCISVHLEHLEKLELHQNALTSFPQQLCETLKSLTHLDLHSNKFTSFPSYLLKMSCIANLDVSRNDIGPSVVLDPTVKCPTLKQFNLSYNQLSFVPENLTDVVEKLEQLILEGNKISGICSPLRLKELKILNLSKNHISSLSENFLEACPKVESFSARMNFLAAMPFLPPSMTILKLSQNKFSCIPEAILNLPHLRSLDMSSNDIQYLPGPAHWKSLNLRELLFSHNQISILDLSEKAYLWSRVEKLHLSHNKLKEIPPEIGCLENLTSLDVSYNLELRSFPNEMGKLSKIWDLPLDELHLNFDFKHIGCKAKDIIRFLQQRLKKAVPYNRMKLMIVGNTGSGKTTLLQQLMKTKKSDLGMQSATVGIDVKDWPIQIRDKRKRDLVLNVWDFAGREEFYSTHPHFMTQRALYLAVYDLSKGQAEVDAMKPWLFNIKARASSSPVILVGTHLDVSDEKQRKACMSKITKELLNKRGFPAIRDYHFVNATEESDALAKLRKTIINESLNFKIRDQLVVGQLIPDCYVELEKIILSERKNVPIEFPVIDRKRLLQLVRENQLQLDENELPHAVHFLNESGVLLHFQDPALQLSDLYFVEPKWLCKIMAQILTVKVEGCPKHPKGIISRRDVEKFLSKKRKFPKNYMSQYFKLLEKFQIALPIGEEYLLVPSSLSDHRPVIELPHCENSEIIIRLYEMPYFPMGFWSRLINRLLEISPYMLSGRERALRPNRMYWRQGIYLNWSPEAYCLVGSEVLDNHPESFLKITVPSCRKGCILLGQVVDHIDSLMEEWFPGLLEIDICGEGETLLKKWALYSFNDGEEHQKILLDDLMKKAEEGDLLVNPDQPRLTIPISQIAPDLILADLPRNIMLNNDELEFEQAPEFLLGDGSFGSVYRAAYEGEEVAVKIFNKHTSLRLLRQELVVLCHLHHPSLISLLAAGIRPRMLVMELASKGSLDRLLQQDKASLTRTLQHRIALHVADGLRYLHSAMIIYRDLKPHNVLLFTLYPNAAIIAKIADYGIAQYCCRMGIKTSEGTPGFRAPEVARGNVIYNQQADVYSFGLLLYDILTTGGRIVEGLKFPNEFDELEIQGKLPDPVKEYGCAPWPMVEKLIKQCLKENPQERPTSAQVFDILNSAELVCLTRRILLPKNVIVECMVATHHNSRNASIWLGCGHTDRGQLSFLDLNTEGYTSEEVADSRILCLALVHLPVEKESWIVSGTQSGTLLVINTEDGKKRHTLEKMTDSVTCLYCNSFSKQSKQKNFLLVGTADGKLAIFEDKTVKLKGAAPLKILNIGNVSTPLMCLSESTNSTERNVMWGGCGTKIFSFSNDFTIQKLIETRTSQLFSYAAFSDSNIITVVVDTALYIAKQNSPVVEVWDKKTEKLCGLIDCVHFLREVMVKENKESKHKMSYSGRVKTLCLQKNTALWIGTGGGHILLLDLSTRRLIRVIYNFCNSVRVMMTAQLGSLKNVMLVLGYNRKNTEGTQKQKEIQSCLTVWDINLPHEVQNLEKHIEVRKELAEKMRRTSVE
Recombinant G2019S-LRRK2 protein, sequence (Q5S007 whole entry G2019S): as the sequence (Q5S007 whole entry) above, with G2019S counted along it

| SMILES | IC50 [1] | IC50 [2] |
| --- | --- | --- |
| C=Cc1nc(C(=O)Nc2ccc3[nH]nc(C4CC4)c3c2)c(C)c(C)c1C#N [Example 332, 5-Cyano-N-(3-cyclopropyl-1H-indazol-5-yl)-3,4-dimethyl-6-vinylpicolinamide] | < 100 nM | 100 to 1000 nM |
| CCc1nc(C(=O)Nc2ccc3[nH]nc(C4CC4)c3c2)c(C)c(C)c1C#N [Example 333, 5-Cyano-N-(3-cyclopropyl-1H-indazol-5-yl)-6-ethyl-3,4-dimethylpicolinamide] | < 100 nM | 100 to 1000 nM |
| Cc1c(C(=O)Nc2ccc3[nH]nc(C4CC4)c3c2)nc(C2CC2)c(C#N)c1C [Example 334, 5-Cyano-6-cyclopropyl-N-(3-cyclopropyl-1H-indazol-5-yl)-3,4-dimethylpicolinamide] | < 100 nM | 100 to 1000 nM |
| Cc1c(C#N)cnc(C(=O)Nc2ccc3[nH]nc(-c4cnn(C5CC5)c4)c3c2)c1C [Example 335, 5-Cyano-N-(3-(1-cyclopropyl-1H-pyrazol-4-yl)-1H-indazol-5-yl)-3,4-dimethylpicolinamide] | < 100 nM | < 100 nM |
